These results are taken from patent US20100267638A1, “EXOSITE-DIRECTED THROMBIN INHIBITORS” (CLEVELAND STATE UNIVERSITY, priority 2003, published 2010).

Read-outs that look alike come from different tables or passages of the source. No end group written: not given here.

One test deals with T1, prothrombin (Homo sapiens, UniProt P00734).
T1 construct: purchased Haematologic Technologies Inc. (Essex Junction, Vt.)
Put plainly: KD of peptide for prothrombin, from kinetics of prothrombinase inhibition. It counts as biochemical. An excerpt:
The mechanism of inhibition of prothrombinase by the hirudin-like peptides HC3 and HC4 was addressed by investigating the effect of the peptides on the kinetic parameters of the enzymatic complex (Km and Vmax). For the sake of simplicity only the results obtained with HC4 are shown (FIG. 2C). In FIG. 2C, the data are plotted as V0 (initial velocity, in arbitrary units) as a function of increasing prothrombin concentration in the presence of increasing concentrations of HC4. The lines drawn represent the best fit through the points with an R^2 of 0.99. The concentrations of HC4 used in the experiments are as follows: control no peptide (filled squares), 0.5 μM peptide (filled circles), 1 μM peptide (filled inverted triangles), 1.5 μM peptide (filled diamonds), and 2 μM peptide (filled triangles). […]
In FIG. 3B, the data are plotted as V0 (initial velocity, in arbitrary units) as a function of increasing prothrombin concentration in the presence of increasing concentrations of peptide DYDYQ. […] The kinetic constants calculated from the data presented in this graph were used to calculate the kcat reported in FIG. 7 assuming a final concentration of 4 nM prothrombinase. […]

A further test deals with T2, prothrombinase (Homo sapiens, UniProt P00734).
T2 construct: purchased Haematologic Technologies Inc. (Essex Junction, Vt.)
Put plainly: Assay measuring thrombin formation (prothrombinase inhibition by peptides, DAPA fluorescence). It counts as biochemical.

Take DYDYQ [DYDYQ, Asp-Tyr-Asp-Tyr-Gln]: the Kd at prothrombin (from Ki of prothrombinase inhibition, read-out: KD for prothrombin) was 0.85 µM; on prothrombin (kinetic model FIG. 7, read-out: KD of inhibitor interaction with prothrombin), around 0.85 µM. Further, the “concentration at which complete inhibition of prothrombinase occurred” value on prothrombinase (FIG. 3A) worked out at 40 µM. Besides, the “inhibition of prothrombinase activity with increasing peptide” value on prothrombinase (FIG. 10A, up to 8000 nM) is listed as “decrease in the activity of prothrombinase”. For the same substance, the inhibition constant (Ki) on prothrombinase (calculated from IC50 of 1.6 μM as in FIG. 2C legend, read-out: Ki for inhibition of prothrombinase) is 0.85 µM. In addition, the IC50 on prothrombinase (factor Va 4 nM, factor Xa 10 nM, prothrombin 350 nM, PCPS 10 μM, peptide preincubated with factor Va) is 1.6 µM.

For orientation: Kd means a measure of binding affinity in units of concentration. One may read the Ki as a dissociation constant, usually derived from enzyme kinetics or from competition with a known ligand. One may read the IC50 as the midpoint of a concentration-inhibition curve.
